Molecules are shown by their SMILES. Read-outs that look alike come from different tables or passages of the source.

This assay deals with Wild type FGFR2 (Homo sapiens (Human), UniProt P21802). The assay is described as follows: FGFR2 kinase assay (fluorescence-based microfluidic mobility shift assay). The class given is biochemical.
Where [1] appears, read: wild type FGFR2 0.06 nM, 100 μM ATP, 80 minutes at room temperature, class symbols.

Wild type FGFR2, sequence (P21802 22-821): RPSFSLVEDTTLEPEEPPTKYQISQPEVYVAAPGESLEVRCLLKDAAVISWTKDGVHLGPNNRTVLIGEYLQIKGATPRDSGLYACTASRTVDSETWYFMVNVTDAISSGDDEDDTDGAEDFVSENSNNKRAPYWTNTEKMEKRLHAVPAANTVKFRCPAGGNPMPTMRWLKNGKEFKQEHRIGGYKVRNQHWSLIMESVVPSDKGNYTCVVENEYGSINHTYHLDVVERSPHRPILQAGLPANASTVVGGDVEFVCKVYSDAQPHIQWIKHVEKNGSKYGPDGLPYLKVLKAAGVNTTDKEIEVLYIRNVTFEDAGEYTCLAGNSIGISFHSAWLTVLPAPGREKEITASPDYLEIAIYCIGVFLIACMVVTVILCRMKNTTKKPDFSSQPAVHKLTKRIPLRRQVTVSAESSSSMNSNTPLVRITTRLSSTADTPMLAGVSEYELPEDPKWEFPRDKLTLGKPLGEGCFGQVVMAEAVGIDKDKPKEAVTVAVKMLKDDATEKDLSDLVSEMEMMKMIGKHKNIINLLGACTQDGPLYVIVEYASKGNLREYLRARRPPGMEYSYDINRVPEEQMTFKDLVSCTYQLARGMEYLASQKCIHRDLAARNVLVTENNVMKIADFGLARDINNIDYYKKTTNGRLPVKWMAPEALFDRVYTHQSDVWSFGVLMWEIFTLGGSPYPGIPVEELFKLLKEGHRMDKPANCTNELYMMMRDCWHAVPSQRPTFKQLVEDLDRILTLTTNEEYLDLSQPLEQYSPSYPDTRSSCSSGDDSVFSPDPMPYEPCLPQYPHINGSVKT

The term IC50 denotes the concentration at which inhibition is half-maximal. Regarding `C=CC(=O)N1C[C@@H](n2nc(C#Cc3cc4c(cc3F)OCO4)c(C(N)=O)c2NC)C[C@@H]1COC` [Example 254, 3-[2-(6-Fluoro-2H-1,3-benzodioxol-5-yl)ethynyl]-1-[(3S,5R)-5-(methoxymethyl)-1-(prop-2-enoyl)pyrrolidin-3-yl]-5-(methylamino)pyrazole-4-carboxamide], the half-maximal inhibitory concentration (IC50) under setting [1] was at most 100 nM.
On the same count and under the same terms, for `C=CC(=O)N1C[C@@H](n2nc(C#Cc3cc4ncc(Cl)cc4cc3F)c(C(N)=O)c2NC)C[C@@H]1COC` [Example 256, 3-[2-(3-Chloro-6-fluoroquinolin-7-yl)ethynyl]-1-[(3S,5R)-5-(methoxymethyl)-1-(prop-2-enoyl)pyrrolidin-3-yl]-5-(methylamino)pyrazole-4-carboxamide] the value was at most 100 nM.
On the same count and under the same terms, for `C=CC(=O)N1C[C@@H](n2nc(C#Cc3cc4ncc(C)n4cc3F)c(C(N)=O)c2NC)C[C@@H]1COC` [Example 257, 1-((3S,5R)-1-Acryloyl-5-(methoxymethyl)pyrrolidin-3-yl)-3-((6-fluoro-3 methylimidazo[1,2-a]pyridin-7-yl)ethynyl)-5-(methylamino)-1H-pyrazole-4-carboxamide] the value was at most 100 nM; for `C=CC(=O)N1C[C@@H](n2nc(C#Cc3cc4ncc(C)cc4cc3Cl)c(C(N)=O)c2NC)C[C@@H]1COC` [Example 258, 3-[2-(6-Chloro-3-methylquinolin-7-yl)ethynyl]-1-[(3S,5R)-5-(methoxymethyl)-1-(prop-2-enoyl)pyrrolidin-3-yl]-5-(methylamino)pyrazole-4-carboxamide], at most 100 nM.
Still for that read-out and setting: for `C=CC(=O)N1C[C@@H](n2nc(C#Cc3cc4nc5n(c4cc3F)CCC5)c(C(N)=O)c2NC)C[C@@H]1COC` [Example 260, 1-((3S,5R)-1-acryloyl-5-(methoxymethyl)pyrrolidin-3-yl)-3-((7-fluoro-2,3-dihydro-1H-benzo[d]pyrrolo[1,2-a]imidazol-6-yl)ethynyl)-5-(methylamino)-1H-pyrazole-4-carboxamide] the value was at most 100 nM; for `C=CC(=O)N1C[C@@H](n2nc(C#Cc3cc4ncc(C5CC5)n4cc3Cl)c(C(N)=O)c2NC)C[C@@H]1COC` [Example 261, 3-(2-{6-Chloro-3-cyclopropylimidazo[1,2-a]pyridin-7-yl}ethynyl)-1-[(3S,5R)-5-(methoxymethyl)-1-(prop-2-enoyl)pyrrolidin-3-yl]-5-(methylamino)pyrazole-4-carboxamide], at most 100 nM; for `C=CC(=O)N1C[C@@H](n2nc(C#Cc3cc4ncc(C#N)n4cc3F)c(C(N)=O)c2NC)C[C@@H]1COC` [Example 262, 3-(2-{3-Cyano-6-fluoroimidazo[1,2-a]pyridin-7-yl}ethynyl)-1-[(3S,5R)-5-(methoxymethyl)-1-(prop-2-enoyl)pyrrolidin-3-yl]-5-(methylamino)pyrazole-4-carboxamide], at most 100 nM.
Take `C=CC(=O)N1C[C@@H](n2nc(C#Cc3ccc4c(C#N)cnn4c3)c(C(N)=O)c2NC)C[C@@H]1COC` [Example 263, 3-(2-{3-Cyanopyrazolo[1,5-a]pyridin-6-yl}ethynyl)-1-[(3S,5R)-5-(methoxymethyl)-1-(prop-2-enoyl)pyrrolidin-3-yl]-5-(methylamino)pyrazole-4-carboxamide]: the IC50 under setting [1] was at most 100 nM.
With `C=CC(=O)N1C[C@@H](n2nc(C#Cc3cc4ncc(F)cc4cc3F)c(C(N)=O)c2NC)C[C@@H]1COC` [Example 264, 3-[2-(3,6-Difluoroquinolin-7-yl)ethynyl]-1-[(3S,5R)-5-(methoxymethyl)-1-(prop-2-enoyl)pyrrolidin-3-yl]-5-(methylamino)pyrazole-4-carboxamide], the IC50 under setting [1] was at most 100 nM.
On the same count and under the same terms, for `C=CC(=O)N1C[C@@H](n2nc(C#Cc3cc4ncc(C)cc4cc3C)c(C(N)=O)c2NC)C[C@@H]1COC` [Example 265, 3-[2-(3,6-Dimethylquinolin-7-yl)ethynyl]-1-[(3S,5R)-5-(methoxymethyl)-1-(prop-2-enoyl)pyrrolidin-3-yl]-5-(methylamino)pyrazole-4-carboxamide] the value was at most 100 nM; for `C=CC(=O)N1C[C@@H](n2nc(C#Cc3cc4nncc(C)c4cc3F)c(C(N)=O)c2NC)C[C@@H]1COC` [Example 266, 1-((3S,5R)-1-Acryloyl-5-(methoxymethyl)pyrrolidin-3-yl)-3-((6-fluoro-4-methylcinnolin-7-yl)ethynyl)-5-(methylamino)-1H-pyrazole-4-carboxamide], at most 100 nM.
With `C=CC(=O)N1C[C@@H](n2nc(C#Cc3cc4ncc(F)cc4cc3Cl)c(C(N)=O)c2NC)C[C@@H]1COC` [Example 267, 3-[2-(6-Chloro-3-fluoroquinolin-7-yl)ethynyl]-1-[(3S,5R)-5-(methoxymethyl)-1-(prop-2-enoyl)pyrrolidin-3-yl]-5-(methylamino)pyrazole-4-carboxamide], the IC50 under setting [1] was at most 100 nM.
On the same count and under the same terms, in the case of `C=CC(=O)N1C[C@@H](n2nc(C#Cc3cc4nncc(C)c4cc3Cl)c(C(N)=O)c2NC)C[C@@H]1COC` [Example 268, 1-((3S,5R)-1-acryloyl-5-(methoxymethyl)pyrrolidin-3-yl)-3-((6-chloro-4-methylcinnolin-7-yl)ethynyl)-5-(methylamino)-1H-pyrazole-4-carboxamide] it was at most 100 nM; in that of `C=CC(=O)N1C[C@@H](n2nc(C#Cc3cc(OC)c4c(C#N)cnn4c3)c(C(N)=O)c2NC)C[C@@H]1COC` [Example 270, 1-((3S,5R)-1-acryloyl-5-(methoxymethyl)pyrrolidin-3-yl)-3-((3-cyano-4-methoxypyrazolo[1,5-a]pyridin-6-yl)ethynyl)-5-(methylamino)-1H-pyrazole-4-carboxamide], at most 100 nM; in that of `C=CC(=O)N1C[C@@H](n2nc(C#Cc3cc4ncc(C(F)F)cc4cc3F)c(C(N)=O)c2NC)C[C@@H]1COC` [Example 273, 3-{2-[3-(Difluoromethyl)-6-fluoroquinolin-7-yl]ethynyl}-1-[(3S,5R)-5-(methoxymethyl)-1-(prop-2-enoyl)pyrrolidin-3-yl]-5-(methylamino)pyrazole-4-carboxamide], at most 100 nM.
Consider `C=CC(=O)N1C[C@@H](n2nc(C#Cc3cc4nccc(C)c4cc3F)c(C(N)=O)c2NC)C[C@@H]1COC` [Example 274, 3-[2-(6-Fluoro-4-methylquinolin-7-yl)ethynyl]-1-[(3S,5R)-5-(methoxymethyl)-1-(prop-2-enoyl)pyrrolidin-3-yl]-5-(methylamino)pyrazole-4-carboxamide], for which the IC50 is under 100 nM.
`C=CC(=O)N1C[C@@H](n2nc(C#Cc3cccc4c3cnn4C)c(C(N)=O)c2NC)C[C@@H]1COC` [Example 275, 1-((3S,5R)-1-Acryloyl-5-(methoxymethyl)pyrrolidin-3-yl)-3-((1-methyl-1H-indazol-4-yl)ethynyl)-5-(methylamino)-1H-pyrazole-4-carboxamide]: the IC50 under setting [1] was at most 100 nM.
Same read-out and setting: for `C=CC(=O)N1C[C@@H](n2nc(C#Cc3cccc4c3cnn4C3CC3)c(C(N)=O)c2NC)C[C@@H]1COC` [Example 276, 3-[2-(1-Cyclopropylindazol-4-yl)ethynyl]-1-[(3S,5R)-5-(methoxymethyl)-1-(prop-2-enoyl)pyrrolidin-3-yl]-5-(methylamino)pyrazole-4-carboxamide] the value was at most 100 nM; for `C=CC(=O)N1C[C@@H](n2nc(C#Cc3cccn4cncc34)c(C(N)=O)c2NC)C[C@@H]1COC` [Example 277, 3-(2-{Imidazo[1,5-a]pyridin-8-yl}ethynyl)-1-[(3S,5R)-5-(methoxymethyl)-1-(prop-2-enoyl)pyrrolidin-3-yl]-5-(methylamino)pyrazole-4-carboxamide], at most 100 nM.
On the same count and under the same terms, for `C=CC(=O)N1C[C@@H](n2nc(C#Cc3cccc4cncn34)c(C(N)=O)c2NC)C[C@@H]1COC` [Example 278, 3-(2-{Imidazo[1,5-a]pyridin-5-yl}ethynyl)-1-[(3S,5R)-5-(methoxymethyl)-1-(prop-2-enoyl)pyrrolidin-3-yl]-5-(methylamino)pyrazole-4-carboxamide] the value was at most 100 nM.
Regarding `C=CC(=O)N1C[C@@H](n2nc(C#Cc3cc4nccc(C)c4cc3Cl)c(C(N)=O)c2NC)C[C@@H]1COC` [Example 281, 3-[2-(6-chloro-4-methylquinolin-7-yl)ethynyl]-1-[(3S,5R)-5-(methoxymethyl)-1-(prop-2-enoyl)pyrrolidin-3-yl]-5-(methylamino)pyrazole-4-carboxamide], the IC50 was under 100 nM.
On to `C=CC(=O)N1C[C@@H](n2nc(C#Cc3cc4ncc(C5CC5)n4cc3F)c(C(N)=O)c2NC)C[C@@H]1COC` [Example 283, 3-(2-{3-Cyclopropyl-6-fluoroimidazo[1,2-a]pyridin-7-yl}ethynyl)-1-[(3S,5R)-5-(methoxymethyl)-1-(prop-2-enoyl)pyrrolidin-3-yl]-5-(methylamino)pyrazole-4-carboxamide], for which, under setting [1], the IC50 is at most 100 nM.
As for `C=CC(=O)N1C[C@@H](n2nc(C#Cc3cc(OC)c4c(C5CC5)cnn4c3)c(C(N)=O)c2NC)C[C@@H]1COC` [Example 284, 3-(2-{3-Cyclopropyl-4-methoxypyrazolo[1,5-a]pyridin-6-yl}ethynyl)-1-[(3S,5R)-5-(methoxymethyl)-1-(prop-2-enoyl)pyrrolidin-3-yl]-5-(methylamino)pyrazole-4-carboxamide], under setting [1], the IC50 was 100 to 1000 nM.
On the same count and under the same terms, for `C=CC(=O)N1C[C@@H](n2nc(C#Cc3cc4nc5n(c4cc3Cl)CCC5)c(C(N)=O)c2NC)C[C@@H]1COC` [Example 285, 1-((3S,5R)-1-Acryloyl-5-(methoxymethyl)pyrrolidin-3-yl)-3-((7-chloro-2,3-dihydro-1H-benzo[d]pyrrolo[1,2-a]imidazol-6-yl)ethynyl)-5-(methylamino)-1H-pyrazole-4-carboxamide] the value was at most 100 nM; for `C=CC(=O)N1C[C@@H](n2nc(C#Cc3c(F)ccc4c3cnn4C3CC3)c(C(N)=O)c2NC)C[C@@H]1COC` [Example 287, 1-((3S,5R)-1-Acryloyl-5-(methoxymethyl)pyrrolidin-3-yl)-3-((1-cyclopropyl-5-fluoro-1H-indazol-4-yl)ethynyl)-5-(methylamino)-1H-pyrazole-4-carboxamide], at most 100 nM; for `C=CC(=O)N1C[C@@H](n2nc(C#Cc3cc4ncc(Cl)n4cc3F)c(C(N)=O)c2NC)C[C@@H]1COC` [Example 290, 3-(2-{3-Chloro-6-fluoroimidazo[1,2-a]pyridin-7-yl}ethynyl)-1-[(3S,5R)-5-(methoxymethyl)-1-(prop-2-enoyl)pyrrolidin-3-yl]-5-(methylamino)pyrazole-4-carboxamide], at most 100 nM.
